Source: US10316070B2, “Dual protected pro-coelenterazine substrates” (PROMEGA CORPORATION, priority 2016, dated 2019)
One block for each molecule: values may come before it.

Legend:
[1] = system: alkaline phosphatase; assay: Alkaline phosphatase assay: light output of furimazine mono- or bis-phosphate pro-substrate with Nanoluc, with and without alkaline phosphatase; format: biochemical; conditions: for Signal to Background: alkaline phosphatase vs none; for Background RLU: without alkaline phosphatase, Nanoluc
Experimental: Alkaline phosphatase assays. To the solution of 50 μl furimazine mono- or bis-phosphate compound (50 μM) and 50 μL of NanoGlo buffer containing 1 ng/mL Nanoluc was added, then alkaline phosphatase (Sigma) in PBS with final concentration at 1 Unit/ml/μM was added, and the light output was measured over time. The background of pro-substrate was measured under same condition without adding alkaline phasphotase.
(§1) The synthesized coelenterazine analogues (compounds of formula (I)) were evaluated for their background and signal/background ratio.

[2] = molecular target: T1, Cathepsin C (Bos taurus, UniProt Q3ZCJ8); assay: Cathepsin C assay: light output of furimazine mono- or bis-Gly-Phe pro-substrate with Nanoluc, with and without Cathepsin C; format: biochemical, bovine; conditions: for Signal to Background: Cathepsin C vs none; for Background RLU: without Cathepsin C, Nanoluc
T1 construct: Cathepsin C (Sigma C8511 from bovine spleen); purchased Sigma C8511; host or cells: bovine spleen (tissue-derived)
Experimental: Cathepsin C assay. To the solution of 50 μl of furimazine mono- or bis-Gly-Phe compound (50 μM) in 1:1 NanoGlo and nanopure water containing DTT 5 mM and 50 µL of 1 ng/mL Nanoluc buffer in 1:1 NanoGlo and nanopure water containing 5 mM DTT was added, then 10 μL of Cathepsin C (Sigma C8511 from bovine spleen) at final concentration of 0.1 U/well was added. The light output was measured over time. The background of pro-substrate was measured under same condition without adding Cathepsin C.
as §1

[3] = system: thermal stable β-glucosidase; assay: Glucosidase assay: light output of furimazine mono- or bis-glucoside pro-substrate with Nanoluc, with and without β-glucosidase; format: biochemical; conditions: for Background RLU: without β-glucosidase, Nanoluc; for Signal to Background: β-glucosidase vs no β-glucosidase
Experimental: To the solution of 50 μl of furimazine mono- or bis-glucoside compound (100 μM) in NanoGlo buffer and 50 μl of NanoGlo buffer containing 1 ng/mL Nanoluc was added 11 μl of thermal stable β-glucosidase (Sigma) in PBS with final concentration of 1 Unit/ml/μM, and the light output was measured over time. The background of pro-substrate was measured under same condition without β-glucosidase.
as §1

T1 sequence (Q3ZCJ8 231-394 limits assumed): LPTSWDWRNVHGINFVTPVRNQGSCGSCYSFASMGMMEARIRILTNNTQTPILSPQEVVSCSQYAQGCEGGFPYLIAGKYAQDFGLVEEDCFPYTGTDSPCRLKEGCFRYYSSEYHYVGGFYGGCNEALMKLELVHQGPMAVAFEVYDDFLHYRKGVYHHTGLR
T1 sequence (Q3ZCJ8 25-134 limits assumed): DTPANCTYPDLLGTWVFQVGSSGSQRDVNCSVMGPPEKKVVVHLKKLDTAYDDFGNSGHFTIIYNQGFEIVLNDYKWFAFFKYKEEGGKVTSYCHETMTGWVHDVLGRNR
T1 sequence (Q3ZCJ8 395-463 limits assumed): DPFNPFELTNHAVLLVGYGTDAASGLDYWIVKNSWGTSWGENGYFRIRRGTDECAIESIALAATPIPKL

SMILES: O=P(O)(O)Oc1ccc(COc2c(Cc3ccco3)nc3c(Cc4ccccc4)nc(-c4ccccc4)cn23)cc1 [WZ-0263, Furimazine Benzyl Phosphate]
Signal to Background ([1]; Time 5 min): 203
Background RLU ([1]; Time 5 min): 32,464 RLU
Signal to Background ([1]; Time 11 min): 232
Background RLU ([1]; Time 11 min): 36,745 RLU
Signal to Background ([1]; Time 21 min): 236
Background RLU ([1]; Time 21 min): 42,522 RLU
Signal to Background ([1]; Time 31 min): 245
Background RLU ([1]; Time 31 min): 48,399 RLU
Signal to Background ([1]; Time 42 min): 244
Background RLU ([1]; Time 42 min): 54,309 RLU
Signal to Background ([1]; Time 62 min): 230
Background RLU ([1]; Time 62 min): 65,661 RLU
Signal to Background ([1]; Time 93 min): 200
Background RLU ([1]; Time 93 min): 80,929 RLU
Signal to Background ([1]; Time 123 min): 170
Background RLU ([1]; Time 123 min): 94,825 RLU

background (in words) ([2]; FIG. 3, Tables 5 and 6): down to instrument noise
Signal to Background ([2]; Time 5 min): 751
Background RLU ([2]; Time 5 min): 20 RLU
Signal to Background ([2]; Time 10 min): 1,464
Background RLU ([2]; Time 10 min): 21 RLU
Signal to Background ([2]; Time 20 min): 2,256
Background RLU ([2]; Time 20 min): 18 RLU
Signal to Background ([2]; Time 30 min): 3,036
Background RLU ([2]; Time 30 min): 14 RLU
Signal to Background ([2]; Time 40 min): 3,941
Background RLU ([2]; Time 40 min): 14 RLU
Signal to Background ([2]; Time 60 min): 8,514
Background RLU ([2]; Time 60 min): 15 RLU
Signal to Background ([2]; Time 90 min): 11,997
Background RLU ([2]; Time 90 min): 16 RLU
Signal to Background ([2]; Time 120 min): 23,011
Background RLU ([2]; Time 120 min): 12 RLU
Signal to Background ([2]; Time 180 min): 29,836
Background RLU ([2]; Time 180 min): 17 RLU
Signal to Background ([2]; Time 240 min): 46,864
Background RLU ([2]; Time 240 min): 15 RLU
Signal to Background ([2]; Time 938 min): 17,386
Background RLU ([2]; Time 938 min): 12 RLU
signal-to-background ratio (in words) ([2]; compared to mono-protected analogue WZ-0294): significantly higher
SMILES: NCC(=O)NC(Cc1ccccc1)C(=O)Nc1ccc(COc2c(Cc3ccco3)nc3c(Cc4ccccc4)nc(-c4cccc(NC(=O)C(Cc5ccccc5)NC(=O)CN)c4)cn23)cc1 (stereo not drawn) [WZ-0299, Bis-Gly-Phe-Aminobenzyl Furimazine]

background signal (in words) ([3]; FIG. 1, Tables 1 and 2): close to instrument noise
Background RLU ([3]; Time 0 hr): 87 RLU
Signal to Background ([3]; Time 0 hr): 340,753
Background RLU ([3]; Time 0.1 hr): 39 RLU
Signal to Background ([3]; Time 0.1 hr): 134,646
Background RLU ([3]; Time 0.25 hr): 32 RLU
Signal to Background ([3]; Time 0.25 hr): 73,734
Background RLU ([3]; Time 0.5 hr): 21 RLU
Signal to Background ([3]; Time 0.5 hr): 58,191
Background RLU ([3]; Time 1 hr): 26 RLU
Signal to Background ([3]; Time 1 hr): 21,501
Background RLU ([3]; Time 1.5 hr): 26 RLU
Signal to Background ([3]; Time 1.5 hr): 12,822
Background RLU ([3]; Time 2 hr): 20 RLU
Signal to Background ([3]; Time 2 hr): 11,569
Background RLU ([3]; Time 3 hr): 14 RLU
Signal to Background ([3]; Time 3 hr): 11,041
Background RLU ([3]; Time 4 hr): 25 RLU
Signal to Background ([3]; Time 4 hr): 5,297
Background RLU ([3]; Time 5 hr): 26 RLU
Signal to Background ([3]; Time 5 hr): 4,585
Background RLU ([3]; Time 6 hr): 22 RLU
Signal to Background ([3]; Time 6 hr): 5,060
Background RLU ([3]; Time 16 hr): 26 RLU
Signal to Background ([3]; Time 16 hr): 2708
signal-to-background ratio, fold higher than the corresponding mono-protected analogue ([3]; at the initial time point): ~100 fold
signal-to-background ratio (in words) ([3]; compared to mono-protected analogues WZ-0261 and WZ-0246): significantly higher
background, fold lower than the corresponding mono-protected analogue WZ-0246 ([3]; vs WZ-0246): ~200 fold
SMILES: OCC1OC(Oc2ccc(COc3c(Cc4ccco4)nc4c(Cc5ccccc5)nc(-c5ccc(OC6OC(CO)C(O)C(O)C6O)cc5)cn34)cc2)C(O)C(O)C1O [WZ-0262, bis-(β-D-glucose) Benzyl Furimazine]

Signal to Background ([2]; Time 5 min): 151
Background RLU ([2]; Time 5 min): 8,974 RLU
Signal to Background ([2]; Time 10 min): 163
Background RLU ([2]; Time 10 min): 9,538 RLU
Signal to Background ([2]; Time 20 min): 180
Background RLU ([2]; Time 20 min): 10,825 RLU
Signal to Background ([2]; Time 30 min): 197
Background RLU ([2]; Time 30 min): 11,741 RLU
Signal to Background ([2]; Time 40 min): 210
Background RLU ([2]; Time 40 min): 12,664 RLU
Signal to Background ([2]; Time 60 min): 232
Background RLU ([2]; Time 60 min): 14,295 RLU
Signal to Background ([2]; Time 90 min): 255
Background RLU ([2]; Time 90 min): 16,141 RLU
Signal to Background ([2]; Time 120 min): 275
Background RLU ([2]; Time 120 min): 17,178 RLU
Signal to Background ([2]; Time 180 min): 273
Background RLU ([2]; Time 180 min): 20,562 RLU
Signal to Background ([2]; Time 240 min): 259
Background RLU ([2]; Time 240 min): 23,705 RLU
Signal to Background ([2]; Time 938 min): 142
Background RLU ([2]; Time 938 min): 15,995 RLU
SMILES: NCC(=O)NC(Cc1ccccc1)C(=O)Nc1ccc(COc2c(Cc3ccco3)nc3c(Cc4ccccc4)nc(-c4ccccc4)cn23)cc1 (stereo not drawn) [WZ-0294, Gly-Phe-Aminobenzyl Furimazine]

Background RLU ([3]; Time 0 hr): 10,028 RLU
Signal to Background ([3]; Time 0 hr): 3,235
Background RLU ([3]; Time 0.1 hr): 10,884 RLU
Signal to Background ([3]; Time 0.1 hr): 2,915
Background RLU ([3]; Time 0.25 hr): 12,298 RLU
Signal to Background ([3]; Time 0.25 hr): 2,426
Background RLU ([3]; Time 0.5 hr): 13,047 RLU
Signal to Background ([3]; Time 0.5 hr): 2,193
Background RLU ([3]; Time 1 hr): 18,529 RLU
Signal to Background ([3]; Time 1 hr): 1,172
Background RLU ([3]; Time 1.5 hr): 20,751 RLU
Signal to Background ([3]; Time 1.5 hr): 926
Background RLU ([3]; Time 2 hr): 24,489 RLU
Signal to Background ([3]; Time 2 hr): 627
Background RLU ([3]; Time 3 hr): 29,692 RLU
Signal to Background ([3]; Time 3 hr): 385
Background RLU ([3]; Time 4 hr): 33,514 RLU
Signal to Background ([3]; Time 4 hr): 264
Background RLU ([3]; Time 5 hr): 37,181 RLU
Signal to Background ([3]; Time 5 hr): 210
Background RLU ([3]; Time 6 hr): 40,543 RLU
Signal to Background ([3]; Time 6 hr): 157
Background RLU ([3]; Time 16 hr): 23,092 RLU
Signal to Background ([3]; Time 16 hr): 36
SMILES: OCC1OC(Oc2ccc(COc3c(Cc4ccco4)nc4c(Cc5ccccc5)nc(-c5ccccc5)cn34)cc2)C(O)C(O)C1O [WZ-0246, β-D-glucose Benzyl Furimazine]

SMILES: O=P(O)(O)Oc1c(Cc2ccco2)nc2c(Cc3ccccc3)nc(-c3ccccc3)cn12 [WZ-0265, Furimazine Phosphate]
Signal to Background ([1]; Time 5 min): 3
Background RLU ([1]; Time 5 min): 9,033,396 RLU
Signal to Background ([1]; Time 11 min): 3
Background RLU ([1]; Time 11 min): 9,181,168 RLU
Signal to Background ([1]; Time 21 min): 3
Background RLU ([1]; Time 21 min): 9,310,668 RLU
Signal to Background ([1]; Time 31 min): 3
Background RLU ([1]; Time 31 min): 9,376,837 RLU
Signal to Background ([1]; Time 42 min): 2
Background RLU ([1]; Time 42 min): 9,394,555 RLU
Signal to Background ([1]; Time 62 min): 2
Background RLU ([1]; Time 62 min): 9,359,460 RLU
Signal to Background ([1]; Time 93 min): 2
Background RLU ([1]; Time 93 min): 9,089,377 RLU
Signal to Background ([1]; Time 123 min): 2
Background RLU ([1]; Time 123 min): 8,772,026 RLU

SMILES: O=P(O)(O)Oc1ccc(COc2c(Cc3ccco3)nc3c(Cc4ccccc4)nc(-c4cccc(OP(=O)(O)O)c4)cn23)cc1 [WZ-0291, Furimazine Bis-Phosphate]
Signal to Background ([1]; Time 5 min): 18,907
Background RLU ([1]; Time 5 min): 713 RLU
Signal to Background ([1]; Time 11 min): 18,699
Background RLU ([1]; Time 11 min): 739 RLU
Signal to Background ([1]; Time 21 min): 19,076
Background RLU ([1]; Time 21 min): 723 RLU
Signal to Background ([1]; Time 31 min): 18,846
Background RLU ([1]; Time 31 min): 723 RLU
Signal to Background ([1]; Time 42 min): 18,568
Background RLU ([1]; Time 42 min): 722 RLU
Signal to Background ([1]; Time 62 min): 18,861
Background RLU ([1]; Time 62 min): 678 RLU
Signal to Background ([1]; Time 93 min): 17,014
Background RLU ([1]; Time 93 min): 680 RLU
Signal to Background ([1]; Time 123 min): 14,664
Background RLU ([1]; Time 123 min): 704 RLU
background (in words) ([1]; compared to mono-protected analogue WZ-0263): low
signal-to-background ratio (in words) ([1]; compared to mono-protected analogues WZ-0263 and WZ-0265): significantly higher
